pIC50: −log10 of the molar value.
System: CD74
Test: siRNA dose response, CD74 mRNA knockdown, bDNA Assay
Assay type: cell-based, human
Settings: THP-1, 24 hr
Procedure: (§1) Dose response curves for siRNAs were generated in vitro using a variety of cell lines according to Table 4.
(§2) Briefly, cells were seeded in 96-well plates and reverse transfected with siRNA, Lipofectamine® 2000 (0.5 uL/well; ThermoFisher), and, in some cases, a reporter plasmid (50 ng/well). The reporter plasmid (psiCHECK™-2, Promega) encoded both firefly luciferase and the gene of interest fused to renilla luciferase; silencing of the gene of interest results in proportional silencing of renilla luciferase but leaves firefly luciferase unaffected as an internal control.
(§3) After 24 hr incubation at 37° C., mRNA knockdown was measured using an endpoint assay. For targets without a reporter plasmid, a branched DNA (bDNA) assay was performed according to the manufacturer's instructions (QuantiGene® Singleplex Gene Expression Assay, ThermoFisher) to measure both the target gene and GAPDH (housekeeping gene) mRNA. Data are plotted as siRNA concentration (nM) vs. remaining mRNA (ratio of target gene to GAPDH, normalized to mock siRNA-transfected cells). For targets with a reporter plasmid, a Dual-Glo® Luciferase Assay was performed according to the manufacturer's instructions (Promega) to measure firefly and renilla luciferase expression. Data are plotted as siRNA concentration (nM) vs. remaining mRNA (ratio of renilla to firefly luminescence, normalized to mock siRNA-transfected cells).
(§4) For all dose response curves, a 4-parameter logistic model was applied to determine the IC50 of each siRNA sequence (Table 5 and FIG. 2). Data shown in Table 5 and FIG. 2 represent the mean of quadruplicates, +/−standard deviation.

Row | Substance | pIC50
1 | XD-09227: siRNA targeting CD74 (sense 5'-ggAAcuGGAGGAcccGucudTsdT-3'; antisense 5'-AGACGGGUCCUCcAGUUCCdTsdT-3'; RNA with 2'-O-methyl and phosphorothioate modifications, case key not given here, as printed in the source, key not given here) | 9.23
2 | XD-09230: siRNA targeting CD74 (sense 5'-gacAAAccAAGucgGaacAdTsdT-3'; antisense 5'-UGUUCCGACUUGGUUUGUCdTsdT-3'; as printed in the source, key not given here) | 9.71
3 | XD-09231: siRNA targeting CD74 (sense 5'-aaAccAAGucGGAacAGcAdTsdT-3'; antisense 5'-UGCUGUUCCGACUUGGUUUdTsdT-3'; RNA with 2'-O-methyl and phosphorothioate modifications, case key not given here, as printed in the source, key not given here) | 9.59
4 | XD-09232: siRNA targeting CD74 (sense 5'-agcuAGAcAGAuccccGuudTsdT-3'; antisense 5'-AACGGGGAUCUGUCuAGCUdTsdT-3'; RNA with 2'-O-methyl and phosphorothioate modifications, case key not given here, as printed in the source, key not given here) | 9.13
5 | XD-09235: siRNA targeting CD74 (sense 5'-ccAAuGuuuuccAcccAuAdTsdT-3'; antisense 5'-uAUGGGUGGAAAAcAUUGGdTsdT-3'; as printed in the source, key not given here) | 9.61
6 | XD-09237: siRNA targeting CD74 (sense 5'-ccAuAAuccuuucuGccGAdTsdT-3'; antisense 5'-UCGGcAGAAAGGAUuAUGGdTsdT-3'; as printed in the source, key not given here) | 8.73
7 | XD-09239: siRNA targeting CD74 (sense 5'-ggccAuGGuucAcauuAGAdTsdT-3'; antisense 5'-UCuAAUGUGAACcAUGGCCdTsdT-3'; as printed in the source, key not given here) | 10.15

System: VSIG4
Test: siRNA dose response, VSIG4 mRNA knockdown, Dual-Glo Luciferase Assay
Assay type: cell-based, human
Settings: Hepa1-6 + reporter plasmid, 24 hr
Procedure: as §1, §2, §3, §4

Row | Substance | pIC50
8 | XD-09170: siRNA targeting VSIG4 (sense 5'-aaGGcuAcAcccAaGucuudTsdT-3'; antisense 5'-AAGACUUGGGUGuAGCCUUdTsdT-3'; RNA with 2'-O-methyl and phosphorothioate modifications, case key not given here, as printed in the source, key not given here) | 10.62
9 | XD-09171: siRNA targeting VSIG4 (sense 5'-cuuucuAcGuGAcucuucudTsdT-3'; antisense 5'-AGAAGAGUcACGuAGAAAGdTsdT-3'; RNA with 2'-O-methyl and phosphorothioate modifications, case key not given here, as printed in the source, key not given here) | 10.64
10 | XD-09172: siRNA targeting VSIG4 (sense 5'-gcAAccAAGucGugAGAGAdTsdT-3'; antisense 5'-UCUCUcACGACUUGGUUGCdTsdT-3'; RNA with 2'-O-methyl and phosphorothioate modifications, case key not given here, as printed in the source, key not given here) | > 11.30
11 | XD-09173: siRNA targeting VSIG4 (sense 5'-cguGAGAGAuAAGauuAcudTsdT-3'; antisense 5'-AGuAAUCUuAUCUCUcACGdTsdT-3'; RNA with 2'-O-methyl and phosphorothioate modifications, case key not given here, as printed in the source, key not given here) | > 11.30
12 | XD-09174: siRNA targeting VSIG4 (sense 5'-aacAAGAGcAuGucuAcGAdTsdT-3'; antisense 5'-UCGuAGAcAUGCUCUUGUUdTsdT-3'; RNA with 2'-O-methyl and phosphorothioate modifications, case key not given here, as printed in the source, key not given here) | 10.44
13 | XD-09176: siRNA targeting VSIG4 (sense 5'-cacuAGGAcuuGGucAucAdTsdT-3'; antisense 5'-AGAUGACcAAGUCCuAGUGdTsdT-3'; RNA with 2'-O-methyl and phosphorothioate modifications, case key not given here, as printed in the source, key not given here) | 10.51
14 | XD-09177: siRNA targeting VSIG4 (sense 5'-acuAGGAcuuGGucAucAudTsdT-3'; antisense 5'-AUGAUGACcAAGUCCuAGUdTsdT-3'; RNA with 2'-O-methyl and phosphorothioate modifications, case key not given here, as printed in the source, key not given here) | 11.15
15 | XD-09178: siRNA targeting VSIG4 (sense 5'-gucAucAuGccuAcAGAcAdTsdT-3'; antisense 5'-UGUCUGuAGGcAUGAUGACdTsdT-3'; RNA with 2'-O-methyl and phosphorothioate modifications, case key not given here, as printed in the source, key not given here) | 10.22
16 | XD-09179: siRNA targeting VSIG4 (sense 5'-ggccAGAcAGcuuuuAAuudTsdT-3'; antisense 5'-AAUuAAAAGCUGUCUGGCCdTsdT-3'; RNA with 2'-O-methyl and phosphorothioate modifications, case key not given here, as printed in the source, key not given here) | 11.22

System: CD37
Test: siRNA dose response, CD37 mRNA knockdown, bDNA Assay
Assay type: cell-based, human
Settings: THP-1, 24 hr
Procedure: as §1, §2, §3, §4

Row | Substance | pIC50
17 | XD-09770: siRNA targeting CD37 (sense 5'-gcuuGcGGGAcGucGuAGAdTsdT-3'; antisense 5'-UCuACGACGUCCCGcAAGCdTsdT-3'; RNA with 2'-O-methyl and phosphorothioate modifications, case key not given here, as printed in the source, key not given here) | 9.26
18 | XD-09771: siRNA targeting CD37 (sense 5'-gacGucGuAGAGAaAAccAdTsdT-3'; antisense 5'-UGGUUUUCUCuACGACGUCdTsdT-3'; RNA with 2'-O-methyl and phosphorothioate modifications, case key not given here, as printed in the source, key not given here) | 9.41

System: AIF1
Test: siRNA dose response, AIF1 mRNA knockdown, bDNA Assay
Assay type: cell-based, human
Settings: THP-1, 24 hr
Procedure: as §1, §2, §3, §4

Row | Substance | pIC50
19 | XD-09661: siRNA targeting AIF1 (sense 5'-uaAuGGAAAuGGcgAuAuudTsdT-3'; antisense 5'-AAuAUCGCcAUUUCcAUuAdTsdT-3'; as printed in the source, key not given here) | 10.35
20 | XD-09662: siRNA targeting AIF1 (sense 5'-uaucAuGucccuGaAAcGAdTsdT-3'; antisense 5'-UCGUUUcAGGGAcAUGAuAdTsdT-3'; as printed in the source, key not given here) | 9.92
21 | XD-09663: siRNA targeting AIF1 (sense 5'-gaAAcGAAuGcuGgAGAAAdTsdT-3'; antisense 5'-UUUCUCcAGcAUUCGUUUCdTsdT-3'; as printed in the source, key not given here) | 9.58
22 | XD-09664: siRNA targeting AIF1 (sense 5'-agAcucAccuAGAgcuAAAdTsdT-3'; antisense 5'-UUuAGCUCuAGGUGAGUCUdTsdT-3'; as printed in the source, key not given here) | 9.36
23 | XD-09665: siRNA targeting AIF1 (sense 5'-cucAccuAGAGcuaAAGAAdTsdT-3'; antisense 5'-UUCUUuAGCUCuAGGUGAGdTsdT-3'; as printed in the source, key not given here) | 9.46
24 | XD-09666: siRNA targeting AIF1 (sense 5'-ucAccuAGAGcuAaAGAAAdTsdT-3'; antisense 5'-UUUCUUuAGCUCuAGGUGAdTsdT-3'; as printed in the source, key not given here) | 9.98
25 | XD-09667: siRNA targeting AIF1 (sense 5'-accuAGAGcuAAAgAAAuudTsdT-3'; antisense 5'-AAUUUCUUuAGCUCuAGGUdTsdT-3'; as printed in the source, key not given here) | 10.38
26 | XD-09668: siRNA targeting AIF1 (sense 5'-ccuAGAGcuAAAGaAAuuAdTsdT-3'; antisense 5'-uAAUUUCUUuAGCUCuAGGdTsdT-3'; as printed in the source, key not given here) | 9.57
27 | XD-09669: siRNA targeting AIF1 (sense 5'-ccGGGGAGAcGuucAGcuAdTsdT-3'; antisense 5'-uAGCUGAACGUCUCCCCGGdTsdT-3'; as printed in the source, key not given here) | 8.91

— patent US20210189342A1, “COMPOSITIONS AND METHODS FOR MODULATING MONOCYTE AND MACROPHAGE INFLAMMATORY PHENOTYPES AND IMMUNOTHERAPY USES THEREOF” (Verseau Therapeutics, Inc., priority 2018, published 2021)
